{"source": "patent US20130289070A1", "about": "“Use of Levocabastine for Modulating Generation of Pro-Inflammatory Cytokines” (Bausch & Lomb Incorporated, priority 2007, published 2013)", "tested_on": "EoL-1 (human eosinophilic leukaemia cell line) cells", "assay": "TNF-α-induced cytokine release, EoL-1 cells differentiated with PMA (Luminex)", "type": "cell-based", "set-up": "key to IL-1α (PMA), p of decrement / IL-1β (PMA), p of decrement / IL-1ra (PMA), p of decrement / IL-5 (PMA), p of decrement / IL-7 (PMA), p of decrement / IL-8 (PMA), p of decrement / IP-10 (PMA), p of decrement / MCP-1 (PMA), p of decrement / MIP-1β (PMA), p of decrement / RANTES (PMA), p of decrement / VEGF (PMA), p of decrement / Fractalkine (PMA), p of decrement / MIP-1α (PMA), p of decrement: ns = non significant", "description": "EoL-1 (human eosinophilic leukaemia cell line) cells (Saito et al., 1985; Mayumi, 1992) were maintained in RPMI-1640 medium with L-glutamine supplemented with 10% (v/v) FBS at 37° C. in a humidified atmosphere with 5% CO2. Where indicated, 24 h before the experiment 25 ng/mL PMA ((phorbol 12-myristate 13-acetate, purchased from Sigma Aldrich) was added to the medium to induce eosinophil granulation and differentiation (Ohtsu et al., 1993; Zimmermann et al., 2000).\nHalf-million cells were aliquoted per point in a 24 well plate; each experiment was performed in triplicate and carried out in parallel with eosinophils differentiated and non differentiated with PMA (25 ng/mL, 24 h). Cells were suspended in low serum medium (RPMI-1640, 0.1% (v/v) FBS). TNF-α was used to induce cytokine secretion as previously described by Steube et al. (2000), and the net release was obtained by comparison to the basal (non-TNF-α treated). In the first experiment we evaluated the concentration and time relation between TNF-α stimulation and cytokine release. Therefore, 5, 10, and 25 ng/mL of TNF-α was administered to the cells at 0, ½, 1, 2, 3, 6, 12 and 24 h (data not shown). An aliquot of 150 μL of supernate was collected for cytokines' analysis. […] Differentiated and non-differentiated EoL-1 cells were exposed from 0.1 to 2.3 mM levocabastine ([…]Levocabastine 0.05% solution eye drops containing cyclodextrins, without benzalkonium chloride), and aliquots of the supernates were collected after 12 and 24 h. The content of cytokines at time zero was estimated by treating the cells with 400 nM calcimycin (A-23187), which is a cytolytic agent that frees all the mediators from the cytoplasmic compartment. In addition, for each experiment we tested the effect of the vehicle, which was added to the wells in a concentration equal to the maximum amount used for drug dilution.\nSamples (supernates 12 and 24 h) in triplicate were analyzed using Luminex 200™ (Luminex, Austin, Tex.) and Beadview software v1.0 (Upstate Cell Signaling Solutions, Temecula, Calif.).\nAll data are presented as mean±SEM for the indicated number of experiments. Statistical significance was determined by Newman-Keuls test after ANOVA using GraphPad Prism (version 3.0; GraphPad Software Inc., San Diego, Calif., USA). P-values<0.05 were considered to be significant.", "key": {"[1]": {"details": "12 h, TNF-α 5 ng + Levocabastine 2 mM vs TNF-α"}, "[2]": {"details": "12 h, TNF-α 10 ng + Levocabastine 2 mM vs TNF-α"}, "[3]": {"details": "12 h, TNF-α 20 ng + Levocabastine 2 mM vs TNF-α"}, "[4]": {"details": "12 h, TNF-α 5, 10, 20 ng + Levocabastine 2 mM vs TNF-α"}}, "data": [{"smiles": "C[C@@H]1CN([C@H]2CC[C@](C#N)(c3ccc(F)cc3)CC2)CC[C@]1(C(=O)O)c1ccccc1", "note": "[Levocabastine, levocabastine]", "values": [{"measurement": "release of IL-8 induced by TNF-α", "setting": "2 mM, TNF-α 5, 10 and 20 ng, 24 h, differentiated with PMA (FIG. 9)", "value": "capable of reducing the release"}, {"measurement": "release of IL-1-ra induced by TNF-α", "setting": "0.1, 0.5 and 1.0 mM, 12 h, differentiated with PMA (FIG. 2)", "value": "capable to prevent the release"}, {"measurement": "release of IL-1β induced by TNF-α", "setting": "0.1, 0.5 and 1.0 mM, 12 h, differentiated with PMA (FIG. 3)", "value": "capable to prevent the release"}, {"measurement": "Fractalkine (PMA), p of decrement", "setting": "[1]", "value": "ns"}, {"measurement": "G-CSF (PMA), p of decrement", "setting": "[1]", "value": "ns"}, {"measurement": "GM-CSF (PMA), p of decrement", "setting": "[1]", "value": "ns"}, {"measurement": "IL-1β (PMA), p of decrement", "setting": "[1]", "value": "ns"}, {"measurement": "IL-5 (PMA), p of decrement", "setting": "[1]", "value": "ns"}, {"measurement": "IL-6 (PMA), p of decrement", "setting": "[1]", "value": "ns"}, {"measurement": "IL-7 (PMA), p of decrement", "setting": "[1]", "value": "ns"}, {"measurement": "IL-8 (PMA), p of decrement", "setting": "[1]", "value": "ns"}, {"measurement": "IL-10 (PMA), p of decrement", "setting": "[1]", "value": "ns"}, {"measurement": "IL-12p40 (PMA), p of decrement", "setting": "[1]", "value": "P < 0.001"}, {"measurement": "IP-10 (PMA), p of decrement", "setting": "[1]", "value": "ns"}, {"measurement": "MCP-1 (PMA), p of decrement", "setting": "[1]", "value": "ns"}, {"measurement": "MIP-1α (PMA), p of decrement", "setting": "[1]", "value": "ns"}, {"measurement": "TGF-α (PMA), p of decrement", "setting": "[1]", "value": "ns"}, {"measurement": "VEGF (PMA), p of decrement", "setting": "[1]", "value": "P < 0.01"}, {"measurement": "Fractalkine (PMA), p of decrement", "setting": "[2]", "value": "ns"}, {"measurement": "G-CSF (PMA), p of decrement", "setting": "[2]", "value": "ns"}, {"measurement": "GM-CSF (PMA), p of decrement", "setting": "[2]", "value": "ns"}, {"measurement": "IL-1β (PMA), p of decrement", "setting": "[2]", "value": "ns"}, {"measurement": "IL-5 (PMA), p of decrement", "setting": "[2]", "value": "ns"}, {"measurement": "IL-6 (PMA), p of decrement", "setting": "[2]", "value": "ns"}, {"measurement": "IL-7 (PMA), p of decrement", "setting": "[2]", "value": "ns"}, {"measurement": "IL-8 (PMA), p of decrement", "setting": "[2]", "value": "ns"}, {"measurement": "IL-10 (PMA), p of decrement", "setting": "[2]", "value": "ns"}, {"measurement": "IL-12p40 (PMA), p of decrement", "setting": "[2]", "value": "P < 0.001"}, {"measurement": "IP-10 (PMA), p of decrement", "setting": "[2]", "value": "ns"}, {"measurement": "MCP-1 (PMA), p of decrement", "setting": "[2]", "value": "ns"}, {"measurement": "MIP-1α (PMA), p of decrement", "setting": "[2]", "value": "ns"}, {"measurement": "TGF-α (PMA), p of decrement", "setting": "[2]", "value": "ns"}, {"measurement": "VEGF (PMA), p of decrement", "setting": "[2]", "value": "ns"}, {"measurement": "Fractalkine (PMA), p of decrement", "setting": "[3]", "value": "ns"}, {"measurement": "G-CSF (PMA), p of decrement", "setting": "[3]", "value": "ns"}, {"measurement": "GM-CSF (PMA), p of decrement", "setting": "[3]", "value": "ns"}, {"measurement": "IL-1β (PMA), p of decrement", "setting": "[3]", "value": "ns"}, {"measurement": "IL-5 (PMA), p of decrement", "setting": "[3]", "value": "ns"}, {"measurement": "IL-6 (PMA), p of decrement", "setting": "[3]", "value": "ns"}, {"measurement": "IL-7 (PMA), p of decrement", "setting": "[3]", "value": "ns"}, {"measurement": "IL-8 (PMA), p of decrement", "setting": "[3]", "value": "ns"}, {"measurement": "IL-10 (PMA), p of decrement", "setting": "[3]", "value": "ns"}, {"measurement": "IL-12p40 (PMA), p of decrement", "setting": "[3]", "value": "P < 0.001"}, {"measurement": "IP-10 (PMA), p of decrement", "setting": "[3]", "value": "ns"}, {"measurement": "MCP-1 (PMA), p of decrement", "setting": "[3]", "value": "ns"}, {"measurement": "MIP-1α (PMA), p of decrement", "setting": "[3]", "value": "ns"}, {"measurement": "TGF-α (PMA), p of decrement", "setting": "[3]", "value": "ns"}, {"measurement": "VEGF (PMA), p of decrement", "setting": "[3]", "value": "ns"}, {"measurement": "IL-1ra (PMA), p of decrement", "setting": "[4]", "value": "increase of cytokine secretion"}, {"measurement": "IL-1α (PMA), p of decrement", "setting": "[4]", "value": "increase of cytokine secretion"}, {"measurement": "MIP-1β (PMA), p of decrement", "setting": "[4]", "value": "increase of cytokine secretion"}, {"measurement": "RANTES (PMA), p of decrement", "setting": "[4]", "value": "increase of cytokine secretion"}, {"measurement": "Fractalkine (PMA), p of decrement", "setting": "12 h, TNF-α vs Lev 0.1 mM", "value": "ns"}, {"measurement": "IL-1ra (PMA), p of decrement", "setting": "12 h, TNF-α vs Lev 0.1 mM", "value": "p < 0.01"}, {"measurement": "IL-1α (PMA), p of decrement", "setting": "12 h, TNF-α vs Lev 0.1 mM", "value": "ns"}, {"measurement": "IL-1β (PMA), p of decrement", "setting": "12 h, TNF-α vs Lev 0.1 mM", "value": "ns"}, {"measurement": "IL-5 (PMA), p of decrement", "setting": "12 h, TNF-α vs Lev 0.1 mM", "value": "ns"}, {"measurement": "IL-7 (PMA), p of decrement", "setting": "12 h, TNF-α vs Lev 0.1 mM", "value": "ns"}, {"measurement": "IL-8 (PMA), p of decrement", "setting": "12 h, TNF-α vs Lev 0.1 mM", "value": "ns"}, {"measurement": "IP-10 (PMA), p of decrement", "setting": "12 h, TNF-α vs Lev 0.1 mM", "value": "ns"}, {"measurement": "MCP-1 (PMA), p of decrement", "setting": "12 h, TNF-α vs Lev 0.1 mM", "value": "ns"}, {"measurement": "MIP-1β (PMA), p of decrement", "setting": "12 h, TNF-α vs Lev 0.1 mM", "value": "ns"}, {"measurement": "RANTES (PMA), p of decrement", "setting": "12 h, TNF-α vs Lev 0.1 mM", "value": "ns"}, {"measurement": "VEGF (PMA), p of decrement", "setting": "12 h, TNF-α vs Lev 0.1 mM", "value": "ns"}, {"measurement": "Fractalkine (PMA), p of decrement", "setting": "12 h, TNF-α vs Lev 0.5 mM", "value": "ns"}, {"measurement": "IL-1ra (PMA), p of decrement", "setting": "12 h, TNF-α vs Lev 0.5 mM", "value": "p < 0.001"}]}]}
